Source: US11845742B2, “Therapeutic compounds and methods to treat infection” (priority 2017, dated 2023)
Converted amounts (≈) assume the structure as drawn.

Assays:
MreB = conditions: P. aeruginosa; background statement; cited from earlier work
[1] = molecular target: T1, MexAB-OprM efflux transporter (Pseudomonas aeruginosa, UniProt P52002); conditions: wild-type P. aeruginosa, background statement; cited from earlier work
T1 construct: MexAB-OprM efflux transporter present in wild-type P. aeruginosa; endogenous in cells; host or cells: wild-type P. aeruginosa

E. coli ATCC 25922 = assay: Intrinsic MIC assay (broth microdilution), E. coli; assay type: cell-based, Escherichia coli; conditions: Escherichia coli, ATCC25922; E. coli ATCC 25922; read-out: Intrinsic MIC
Protocol: (§1) MIC assays were conducted in accordance with Clinical and Laboratory Standards Institute (CLSI) guidelines for broth microdilution.
(§2) The intrinsic MIC of the experimental EPIs was tested with the method described. The 2-fold serial dilution begins with 100 μg/mL of tested compound in the first column of the 96-well plates. The following Gram-negative bacterial strains were included in these assays: • Escherichia coli ATCC 25922 • Klebsiella pneumoniae ATCC 13883 and ATCC 10031 • Pseudomonas aeruginosa ATCC 27853. • Pseudomonas aeruginosa PAO1 • Acinetobacter baumannii ATCC 19606

K. pneumoniae ATCC 10031 = assay: Intrinsic MIC assay (broth microdilution), K. pneumoniae; assay type: cell-based, Klebsiella pneumoniae; conditions: Klebsiella pneumoniae, ATCC10031; K. pneumoniae ATCC 10031; read-out: Intrinsic MIC
Protocol: as §1, §2

P. Aeruginosa PAO1 [2] = assay: Intrinsic MIC assay (broth microdilution), P. aeruginosa PAO1; assay type: cell-based, Pseudomonas aeruginosa; conditions: Pseudomonas aeruginosa, 18 h; P. Aeruginosa PAO1, without EPI; read-out: Intrinsic MIC
Protocol: as §1, §2

P. Aeruginosa PAO1 [3] = assay: MIC assay in the presence of a bacterial efflux pump inhibitor (EPI), P. aeruginosa PAO1; assay type: cell-based, Pseudomonas aeruginosa; conditions: in the presence of 12.5 μg/ml of N-(((2S,4R)-4-(aminomethyl)pyrrolidin-2-yl)methyl)-6-(4-fluorophenyl)-1H-indole-2-carboxamide
Protocol: The ability of a compound to produce an antibiotic effect can be determined using a method as described in Example 11. Data for representative compounds used in combination with the bacterial efflux pump inhibitor (EPI) N-(((2S,4R)-4-(aminomethyl)pyrrolidin-2-yl)methyl)-6-(4-fluorophenyl)-1H-indole-2-carboxamide is shown in Table 1.
as §1
The EPI assay for the purposes of these studies represents a MIC assay in which the MIC of the antibiotic against the bacteria is tested in the presence of an experimental efflux pump inhibitor (EPI). The highest concentration of the EPI present in the assay typically is ½ of the intrinsic MIC of the compound. […] Using serial dilutions of the EPI, its enhancement of antibiotic activity was then evaluated. The relative EPI activity was decided by comparing the MIC of the antibiotic in the presence of the EPI compound with the intrinsic MIC of the antibiotic alone. For comparative purposes, we generally used EPIs at concentration of 12.5 and 6.25 μg/ml against varying concentration of our test antibiotic.

A. baumannii ATCC 19606 = assay: Intrinsic MIC assay (broth microdilution), A. baumannii; assay type: cell-based, Acinetobacter baumannii; conditions: Acinetobacter baumannii, ATCC19606; A. baumannii ATCC 19606; read-out: Intrinsic MIC
Protocol: as §1, §2

T1 sequence (P52477 24-383): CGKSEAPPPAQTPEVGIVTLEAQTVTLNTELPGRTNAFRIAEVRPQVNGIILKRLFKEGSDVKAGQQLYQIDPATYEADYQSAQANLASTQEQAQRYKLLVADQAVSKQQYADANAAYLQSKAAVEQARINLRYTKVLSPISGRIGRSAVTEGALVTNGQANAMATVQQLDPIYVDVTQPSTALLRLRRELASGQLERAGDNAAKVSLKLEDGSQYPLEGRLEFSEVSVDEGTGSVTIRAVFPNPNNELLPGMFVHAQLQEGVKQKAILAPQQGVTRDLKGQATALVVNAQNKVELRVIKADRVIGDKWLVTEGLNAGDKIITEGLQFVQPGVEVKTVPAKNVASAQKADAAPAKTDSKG
T1 sequence (P52002 whole entry): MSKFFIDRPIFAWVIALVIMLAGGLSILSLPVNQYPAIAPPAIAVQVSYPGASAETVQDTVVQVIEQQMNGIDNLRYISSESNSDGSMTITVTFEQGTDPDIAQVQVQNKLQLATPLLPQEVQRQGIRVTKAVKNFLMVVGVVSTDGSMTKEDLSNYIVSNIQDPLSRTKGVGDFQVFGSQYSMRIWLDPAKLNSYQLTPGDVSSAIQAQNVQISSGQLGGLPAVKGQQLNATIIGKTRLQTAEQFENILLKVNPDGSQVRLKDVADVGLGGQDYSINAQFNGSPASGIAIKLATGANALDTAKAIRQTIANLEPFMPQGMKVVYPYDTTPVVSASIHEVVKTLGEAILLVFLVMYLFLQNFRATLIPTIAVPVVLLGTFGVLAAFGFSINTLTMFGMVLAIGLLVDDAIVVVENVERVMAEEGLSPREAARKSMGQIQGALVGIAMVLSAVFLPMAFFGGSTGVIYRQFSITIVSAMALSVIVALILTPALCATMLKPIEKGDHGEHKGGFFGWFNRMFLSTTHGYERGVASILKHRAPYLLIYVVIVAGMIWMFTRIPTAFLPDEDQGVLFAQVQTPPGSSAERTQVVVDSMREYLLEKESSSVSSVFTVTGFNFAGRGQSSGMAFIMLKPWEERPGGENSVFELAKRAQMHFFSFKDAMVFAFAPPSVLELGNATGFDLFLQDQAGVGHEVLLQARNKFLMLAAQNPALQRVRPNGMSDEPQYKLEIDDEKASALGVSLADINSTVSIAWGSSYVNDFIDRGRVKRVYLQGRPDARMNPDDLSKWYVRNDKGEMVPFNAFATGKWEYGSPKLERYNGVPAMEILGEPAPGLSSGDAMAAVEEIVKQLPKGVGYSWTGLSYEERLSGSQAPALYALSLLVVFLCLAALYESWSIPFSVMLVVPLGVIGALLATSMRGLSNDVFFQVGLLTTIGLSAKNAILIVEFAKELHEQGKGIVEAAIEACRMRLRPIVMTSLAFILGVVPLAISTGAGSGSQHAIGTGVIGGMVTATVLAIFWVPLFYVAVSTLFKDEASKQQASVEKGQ
T1 sequence (Q51487 18-485, further chain): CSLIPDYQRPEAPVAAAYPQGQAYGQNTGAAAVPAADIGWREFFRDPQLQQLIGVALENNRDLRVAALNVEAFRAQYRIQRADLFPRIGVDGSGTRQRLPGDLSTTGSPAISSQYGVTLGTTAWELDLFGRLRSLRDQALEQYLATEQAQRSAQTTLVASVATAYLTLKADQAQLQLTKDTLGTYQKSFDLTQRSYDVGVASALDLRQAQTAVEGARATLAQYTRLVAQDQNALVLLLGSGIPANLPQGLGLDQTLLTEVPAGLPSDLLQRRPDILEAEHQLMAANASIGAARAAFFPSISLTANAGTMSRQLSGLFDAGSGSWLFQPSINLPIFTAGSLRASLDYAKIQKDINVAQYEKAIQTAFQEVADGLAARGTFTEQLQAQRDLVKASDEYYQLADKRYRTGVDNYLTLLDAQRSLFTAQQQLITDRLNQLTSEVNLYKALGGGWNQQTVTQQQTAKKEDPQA

Structure (SMILES) | MreB inhibition (MreB) | Efflux transporter substrate [1] | MIC (E. coli ATCC 25922) | MIC (K. pneumoniae ATCC 10031) | MIC (P. Aeruginosa PAO1 [2]) | MIC in the Presence of EPI* (P. Aeruginosa PAO1 [3]) | MIC (A. baumannii ATCC 19606)
NC1CCCc2c1[nH]c1ccc(Br)cc21 (stereo not shown) [CBR-4830] | effective MreB inhibitor | substrate for the MexAB-OprM efflux transporter |  |  |  |  | 
CC(NCCCNC(=O)c1ccc(Cl)c(Cl)c1)c1cc2cc(Br)ccc2[nH]1 (stereo not shown) [Example 30, N-(3-((1-(5-Bromo-1H-indol-2-yl)ethyl)amino)propyl)-3,4-dichlorobenzamide] |  |  | 32 µg/mL (≈ 68.2 µM) | 4 µg/mL (≈ 8.52 µM) | > 256 µg/mL | 32 µg/mL | 64 µg/mL (≈ 136 µM)
CC(NCCCNC(=O)C1CCCCC1)c1cc2cc(Br)ccc2[nH]1 (stereo not shown) [Example 31, N-(3-((1-(5-Bromo-1H-indol-2-yl)ethyl)amino)propyl)cyclohexanecarboxamide] |  |  | 64 µg/mL (≈ 157 µM) | 16 µg/mL (≈ 39.4 µM) | > 256 µg/mL | 128 µg/mL | 64 µg/mL (≈ 157 µM)
CCCCNC(C)c1cc2cc(Br)ccc2[nH]1 (stereo not shown) [Example 32, N-(1-(5-Bromo-1H-indol-2-yl)ethyl)butan-1-amine] |  |  | 32 µg/mL (≈ 108 µM) | 16 µg/mL (≈ 54.2 µM) | > 256 µg/mL | 64 µg/mL | 64 µg/mL (≈ 217 µM)
CC(NCCc1ccccc1)c1cc2cc(Br)ccc2[nH]1 (stereo not shown) [Example 33, 1-(5-Bromo-1H-indol-2-yl)-N-phenethylethan-1-amine] |  |  | 16 µg/mL (≈ 46.6 µM) | 4 µg/mL (≈ 11.7 µM) | > 256 µg/mL | 32 µg/mL | 32 µg/mL (≈ 93.2 µM)
CC(NCCNC(=O)c1ccc(Cl)c(Cl)c1)c1cc2cc(Br)ccc2[nH]1 (stereo not shown) [Example 34, N-(2-((1-(5-Bromo-1H-indol-2-yl)ethyl)amino)ethyl)-3,4-dichlorobenzamide] |  |  | 32 µg/mL (≈ 70.3 µM) | 4 µg/mL (≈ 8.79 µM) | > 256 µg/mL | 32 µg/mL | 64 µg/mL (≈ 141 µM)
CC(NCC1CC1)c1cc2cc(Br)ccc2[nH]1 (stereo not shown) [Example 35, 1-(5-Bromo-1H-indol-2-yl)-N-(cyclopropylmethyl)ethan-1-amine] |  |  | 128 µg/mL (≈ 437 µM) | 64 µg/mL (≈ 218 µM) | > 256 µg/mL | 256 µg/mL | 128 µg/mL (≈ 437 µM)
NC(CCc1ccccc1)c1cc2cc(Br)ccc2[nH]1 (stereo not shown) [Example 36, 1-(5-Bromo-1H-indol-2-yl)-3-phenylpropan-1-amine] |  |  | 16 µg/mL (≈ 48.6 µM) | 8 µg/mL (≈ 24.3 µM) | > 256 µg/mL | 32 µg/mL | 32 µg/mL (≈ 97.2 µM)
CC(NCCCC(=O)Nc1ccc(Cl)c(Cl)c1)c1cc2cc(Br)ccc2[nH]1 (stereo not shown) [Example 37, 4-((1-(5-Bromo-1H-indol-2-yl)ethyl)amino)-N-(3,4-dichlorophenyl)butanamide] |  |  | 16 µg/mL (≈ 34.1 µM) | 4 µg/mL (≈ 8.52 µM) | > 256 µg/mL | 16 µg/mL | 32 µg/mL (≈ 68.2 µM)
CC(NCCCCOc1ccc(Cl)c(Cl)c1)c1cc2cc(Br)ccc2[nH]1 (stereo not shown) [Example 38, N-(1-(5-Bromo-1H-indol-2-yl)ethyl)-4-(3,4-dichlorophenoxy)butan-1-amine] |  |  | 16 µg/mL (≈ 35.1 µM) | 4 µg/mL (≈ 8.77 µM) | > 256 µg/mL | 16 µg/mL | 64 µg/mL (≈ 140 µM)
CCNCCNC(C)c1cc2cc(Br)ccc2[nH]1 (stereo not shown) [Example 39, N^1-(1-(5-Bromo-1H-indol-2-yl)ethyl)-N^2-ethylethane-1,2-diaminehydrochloricacid] |  |  | 256 µg/mL (≈ 825 µM) | 128 µg/mL (≈ 413 µM) | > 256 µg/mL | > 256 µg/mL | 256 µg/mL (≈ 825 µM)
